From patent US11267811B2, “Small molecule inhibitors of galectin-3” (BRISTOL-MYERS SQUIBB COMPANY, priority 2017, dated 2022) come the findings set out here.

What is called IC50 is the concentration that gives 50% inhibition.

For the first experiment, the target named is His-tagged recombinant human Gal-3 (hGal-3) (Homo sapiens (Human), UniProt P17931). Nature of the experiment: Gal-3 HTRF assay (His-tagged hGal-3 binding to B-ASF).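 Further: compounds preincubated 30 min with hGal-3, then 1 h with B-ASF, detection via terbium anti-His antibody and streptavidin d2. Control with B-ASF counts as full signal, omitting B-ASF as background.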 To be noted: HTRF, hGal-3 15 nM, B-ASF 15 nM; read-out: hGal-3 IC50.
Sequence of His-tagged recombinant human Gal-3 (hGal-3) (P17931 whole entry): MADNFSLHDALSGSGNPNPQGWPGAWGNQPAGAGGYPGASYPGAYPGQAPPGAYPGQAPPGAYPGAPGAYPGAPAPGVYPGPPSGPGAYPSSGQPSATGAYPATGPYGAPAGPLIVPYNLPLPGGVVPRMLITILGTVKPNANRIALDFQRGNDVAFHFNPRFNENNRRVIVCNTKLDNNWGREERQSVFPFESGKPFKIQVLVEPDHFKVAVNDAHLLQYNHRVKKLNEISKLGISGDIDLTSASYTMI
As to `COc1ccccc1-n1cnnc1[C@@H]1O[C@H](CO)[C@H](O)[C@H](n2cc(-c3cc(F)c(F)c(F)c3)nn2)[C@H]1O` [Example 86], the IC50 was 0.38 µM.

`Cc1nc2ccc(-c3cnnn3[C@@H]3O[C@H](CO)[C@H](O)[C@H](n4cc(-c5cc(F)c(F)c(F)c5)nn4)[C@H]3O)cc2s1` [Example 8]: the IC50 worked out at 0.158 µM.

As for `O=C(O)c1nnn([C@@H]2O[C@H](CO)[C@H](O)[C@H](n3cc(-c4cc(F)c(F)c(F)c4)nn3)[C@H]2O)c1-c1ccc(Cl)c(Cl)c1` [Example 11], the concentration for half-maximal inhibition (IC50) came out at 0.184 µM.

Consider `Cn1ncnc1[C@@H]1O[C@H](CO)[C@H](O)[C@H](n2cc(-c3cc(F)c(F)c(F)c3)nn2)[C@H]1O` [Example 44], for which the concentration for half-maximal inhibition (IC50) was determined as 4.46 µM.

Consider `Cc1nc2cc(F)c(-n3cnnc3[C@@H]3O[C@H](CO)[C@H](O)[C@H](n4cc(-c5cc(F)c(F)c(F)c5)nn4)[C@H]3O)cc2s1` [Example 137], for which the IC50 is 0.08 µM.

For `OC[C@H]1O[C@@H](c2ncnn2-c2cc(Cl)ccc2Cl)C[C@@H](n2cc(-c3cc(F)c(F)c(F)c3)nn2)[C@H]1O` [Example 177], the IC50 is 0.13 µM.

As for `Cc1nc2ccc(-n3ncnc3[C@@H]3O[C@H](CO)[C@H](O)[C@H](n4cc(C(=O)NC5CCCC5)nn4)[C@H]3O)cc2s1` [Example 197], the IC50 was 1.32 µM.

Consider `Cc1nc2c(Cl)cc(-n3cnnc3[C@@H]3O[C@H](CO)[C@H](O)[C@H](n4cc(-c5cc(F)c(F)c(F)c5)nn4)[C@H]3O)cc2s1` [Example 148], for which the IC50 is 0.08 µM.

As for `Cn1ncc2ccc(-n3cnnc3[C@@H]3O[C@H](CO)[C@H](O)[C@H](n4cc(-c5cc(F)c(F)c(F)c5)nn4)[C@H]3O)cc21` [Example 166], the IC50 is 0.15 µM.

Consider `OC[C@H]1O[C@@H](c2nncn2-c2ccccc2F)[C@H](O)[C@@H](n2cc(-c3cc(F)c(F)c(F)c3)nn2)[C@H]1O` [Example 97], for which the IC50 worked out at 0.35 µM.

For the compound `CNC(=O)c1cn([C@H]2[C@@H](O)[C@@H](CO)O[C@@H](c3ncnn3-c3ccc4nc(C)sc4c3)[C@@H]2O)nn1` [Example 195], the half-maximal inhibitory concentration (IC50) was 1.16 µM.

Consider `COC(=O)c1cc2ccc(-n3cnnc3[C@@H]3O[C@H](CO)[C@H](O)[C@H](n4cc(-c5cc(F)c(F)c(F)c5)nn4)[C@H]3O)cc2s1` [Example 163], for which the concentration for half-maximal inhibition (IC50) worked out at 0.22 µM.

Turning to `CC(=O)Nc1ccc(-n2cnnc2[C@@H]2O[C@H](CO)[C@H](O)[C@H](n3cc(-c4cc(F)c(F)c(F)c4)nn3)[C@H]2O)cc1O` [Example 159], the half-inhibitory concentration (IC50) turned out to be 0.84 µM.

In the case of `OC[C@H]1O[C@@H](c2nncn2Cc2nccs2)[C@H](O)[C@@H](n2cc(-c3cc(F)c(F)c(F)c3)nn2)[C@H]1O` [Example 158], the IC50 was determined as 2.15 µM.

With `Cc1nc([C@@H]2O[C@H](CO)[C@H](O)[C@H](n3cc(-c4cc(F)c(Cl)c(F)c4)nn3)[C@H]2O)n(-c2cc(Cl)ccc2C)n1` [Example 261], the IC50 turned out to be 0.02 µM.

For `OC[C@H]1O[C@@H](c2nncn2Cc2nc3ccccc3s2)[C@H](O)[C@@H](n2cc(-c3cc(F)c(F)c(F)c3)nn2)[C@H]1O` [Example 130], the IC50 was found to be 0.32 µM.

`CC(C)Oc1cccc(-n2cnnc2[C@@H]2O[C@H](CO)[C@H](O)[C@H](n3cc(-c4cc(F)c(F)c(F)c4)nn3)[C@H]2O)c1` [Example 105]: the concentration for half-maximal inhibition (IC50) was determined as 0.33 µM.

Consider `COc1ccc(-n2cnnc2[C@@H]2O[C@H](CO)[C@H](O)[C@H](n3cc(-c4cc(F)c(F)c(F)c4)nn3)[C@H]2O)cc1OC` [Example 79], for which the 50% inhibitory concentration (IC50) is 0.17 µM.

Take `O=C(NCCN1CCOCC1)c1nnc([C@@H]2O[C@H](CO)[C@H](O)[C@H](n3cc(-c4cccc(F)c4)nn3)[C@H]2O)o1` [Example 299, 5-((2R,3R,4S,5R,6R)-4-(4-(3-fluorophenyl)-1H-1,2,3-triazol-1-yl)-3,5-dihydroxy-6-(hydroxymethyl)tetrahydro-2H-pyran-2-yl)-N-(2-morpholinoethyl)-1,3,4-oxadiazole-2-carboxamide]: the IC50 stood at 10.6 µM.

For the compound `N#Cc1cccc(-n2cnnc2[C@@H]2O[C@H](CO)[C@H](O)[C@H](n3cc(-c4cc(F)c(F)c(F)c4)nn3)[C@H]2O)c1` [Example 153], the IC50 was 0.14 µM.

Turning to `Cc1nc2ccc(-n3ncnc3[C@@H]3O[C@H](CO)[C@H](O)[C@H](n4cc(-c5cc(F)c(N6CCC(O)CC6)c(F)c5)nn4)[C@H]3O)cc2s1` [Example 241, (2R,3R,4R,5R,6S)-4-(4-(3,5-difluoro-4-(4-hydroxypiperidin-1-yl)phenyl)-1H-1,2,3-triazol-1-yl)-2-(hydroxymethyl)-6-(1-(2-methylbenzo[d]thiazol-6-yl)-1H-1,2,4-triazol-5-yl)tetrahydro-2H-pyran-3,5-diol], the half-maximal inhibitory concentration (IC50) amounted to 0.13 µM.

Turning to `CO[C@@H]1[C@@H](n2cc(-c3ccc(Cl)c(F)c3)nn2)[C@@H](O)[C@@H](CO)O[C@H]1c1nc(C)nn1-c1cc(Cl)ccc1Cl` [Example 257, (2R,3R,4S,5R,6S)-4-(4-(4-chloro-3-fluorophenyl)-1H-1,2,3-triazol-1-yl)-6-(1-(2,5-dichlorophenyl)-3-methyl-1H-1,2,4-triazol-5-yl)-2-(hydroxymethyl)-5-methoxytetrahydro-2H-pyran-3-ol], the half-maximal inhibitory concentration (IC50) stood at 0.05 µM.

As for `COc1ccc([C@@H]2O[C@H](CO)[C@H](O)[C@H](n3cc(-c4cc(F)c(F)c(F)c4)nn3)[C@H]2O)cc1` [Example 292, (2R,3R,4R,5R,6S)-2-(hydroxymethyl)-6-(4-methoxyphenyl)-4-(4-(3,4,5-trifluorophenyl)-1H-1,2,3-triazol-1-yl)tetrahydro-2H-pyran-3,5-diol], the IC50 was 10 µM.

The experiment is the same for the next values; noted with them: read-out: hGal3 IC50.
`Cc1nc([C@@H]2O[C@H](CO)[C@H](O)[C@H](n3cc(-c4ccc(Cl)c(F)c4)nn3)[C@H]2O)n(-c2ccccc2)n1` [Example 247]: the IC50 was found to be 0.45 µM.

With `Cc1nc2ccc(-n3ncnc3[C@@H]3O[C@H](CO)[C@H](O)[C@H](n4cc(-c5ccc(Cl)c(F)c5)nn4)[C@H]3O)cc2s1` [Example 217], the IC50 came out at 0.07 µM.

Consider `Cc1nc2ccc(-n3ncnc3[C@@H]3O[C@H](CO)[C@H](O)[C@H](n4cc(-c5cc(F)c(Cl)c(F)c5)nn4)[C@H]3O)cc2s1` [Example 210], for which the half-inhibitory concentration (IC50) came out at 0.04 µM.

Consider `Cc1nc([C@H]2C[C@@H](n3cc(-c4cc(F)c(Cl)c(F)c4)nn3)[C@@H](O)[C@@H](CO)O2)n(-c2cc(Cl)ccc2Cl)n1` [Example 262], for which the IC50 stood at 0.1 µM.

Still in this experiment, the particulars now being: read-out: hGal IC50.
Take `Cc1nc([C@@H]2O[C@H](CO)[C@H](O)[C@H](n3cc(-c4ncc(Cl)cc4F)nn3)[C@H]2O)n(-c2cc(Cl)ccc2C(F)(F)F)n1` [Example A59]: the IC50 stood at 0.158 µM.

Take `Cc1nc([C@@H]2O[C@H](CO)[C@H](O)[C@H](n3cc(-c4ccc(F)c(Cl)c4)nn3)[C@H]2O)n(-c2cc(Cl)ccc2C(F)(F)F)n1` [Example A50]: the IC50 worked out at 0.052 µM.

In the case of `Cc1nc([C@@H]2O[C@H](CO)[C@H](O)[C@H](n3cc(-c4ncc(Cl)cc4Cl)nn3)[C@H]2O)n(-c2cc(Cl)ccc2C(F)(F)F)n1` [Example A62], the concentration for half-maximal inhibition (IC50) was 0.172 µM.

In the case of `Cc1nc([C@@H]2O[C@H](CO)[C@H](O)[C@H](n3cc(-c4cc(F)c(Cl)c(Cl)c4)nn3)[C@H]2O)n(-c2cc(Cl)ccc2C(F)(F)F)n1` [Example A55], the concentration for half-maximal inhibition (IC50) is 0.02 µM.

On to `Cc1nc([C@@H]2O[C@H](CO)[C@H](O)[C@H](n3cc(-c4cc(F)c(Cl)c(F)c4)nn3)[C@H]2O)n(-c2cc(C(F)F)ccc2Cl)n1` [Example A43], for which the IC50 was determined as 0.05 µM.

`Cc1nc([C@@H]2O[C@H](CO)[C@H](O)[C@H](n3cc(-c4cc(F)c(Br)c(F)c4)nn3)[C@H]2O)n(-c2cc(Cl)ccc2C2CC2)n1` [Example A35]: the IC50 worked out at 0.151 µM.
